From ChEMBL document CHEMBL4390688, “Accelerating the discovery of DGAT1 inhibitors through the application of parallel medicinal chemistry (PMC)” (Bioorg Med Chem Lett, 2019)

Assays:
[1] = biological target: Voltage-gated inwardly rectifying potassium channel KCNH2 (Homo sapiens, UniProt Q12809); test: Inhibition of human ERG
Adenosine receptor A2a [2] = biological target: T1, Adenosine receptor A2a (Homo sapiens, UniProt P29274); test: Activity against human A2AR assessed as inhibition of cAMP accumulation by cAMP functional assay
Mus musculus [3] = test: Reduction in lipid excursion in mouse at 3 mg/kg, po administered as single dose measured after 18 hrs by lipid tolerance test relative to control; type: functional; set-up: scale not given: the % may be the effect or the level left
Adenosine receptor A2a [4] = biological target: T1, Adenosine receptor A2a; test: Activity at human Adenosine A2A receptor; type: ADME
[5] = biological target: T2, Diacylglycerol O-acyltransferase 1 (Homo sapiens, UniProt O75907)
T2 sequence (O75907 whole entry): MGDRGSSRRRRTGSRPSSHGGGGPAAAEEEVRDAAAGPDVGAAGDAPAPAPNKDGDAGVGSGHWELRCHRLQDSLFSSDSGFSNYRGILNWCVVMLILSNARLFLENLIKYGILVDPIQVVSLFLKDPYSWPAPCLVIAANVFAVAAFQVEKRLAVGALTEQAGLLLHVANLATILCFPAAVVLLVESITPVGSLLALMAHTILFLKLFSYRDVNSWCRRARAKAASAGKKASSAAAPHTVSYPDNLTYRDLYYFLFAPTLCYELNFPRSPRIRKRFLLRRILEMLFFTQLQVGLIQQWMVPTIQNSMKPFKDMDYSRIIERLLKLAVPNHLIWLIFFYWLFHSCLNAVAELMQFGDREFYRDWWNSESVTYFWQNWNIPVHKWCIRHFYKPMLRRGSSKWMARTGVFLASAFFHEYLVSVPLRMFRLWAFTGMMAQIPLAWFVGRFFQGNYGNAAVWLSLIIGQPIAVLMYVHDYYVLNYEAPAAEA
Description: Inhibition of human DGAT1

[6] = biological target: T3, Diacylglycerol O-acyltransferase 1 (Mus musculus, UniProt Q9Z2A7)
T3 sequence (Q9Z2A7 whole entry): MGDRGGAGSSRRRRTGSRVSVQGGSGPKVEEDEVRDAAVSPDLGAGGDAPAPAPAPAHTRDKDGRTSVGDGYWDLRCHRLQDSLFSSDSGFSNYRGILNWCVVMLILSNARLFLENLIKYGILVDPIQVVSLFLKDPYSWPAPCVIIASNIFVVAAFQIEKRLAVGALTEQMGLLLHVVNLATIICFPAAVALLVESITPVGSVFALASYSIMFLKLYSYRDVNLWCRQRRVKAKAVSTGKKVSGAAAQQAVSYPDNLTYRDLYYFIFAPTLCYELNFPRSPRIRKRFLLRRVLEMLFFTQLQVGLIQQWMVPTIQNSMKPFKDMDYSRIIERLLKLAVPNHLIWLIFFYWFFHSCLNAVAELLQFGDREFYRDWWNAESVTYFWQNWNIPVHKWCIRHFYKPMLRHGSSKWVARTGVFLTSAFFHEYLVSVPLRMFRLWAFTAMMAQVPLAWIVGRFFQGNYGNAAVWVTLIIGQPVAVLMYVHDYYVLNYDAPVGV
Description: Inhibition of mouse DGAT1

[7] = biological target: T4, Sterol O-acyltransferase 1 (Homo sapiens, UniProt P35610)
T4 sequence (P35610 whole entry): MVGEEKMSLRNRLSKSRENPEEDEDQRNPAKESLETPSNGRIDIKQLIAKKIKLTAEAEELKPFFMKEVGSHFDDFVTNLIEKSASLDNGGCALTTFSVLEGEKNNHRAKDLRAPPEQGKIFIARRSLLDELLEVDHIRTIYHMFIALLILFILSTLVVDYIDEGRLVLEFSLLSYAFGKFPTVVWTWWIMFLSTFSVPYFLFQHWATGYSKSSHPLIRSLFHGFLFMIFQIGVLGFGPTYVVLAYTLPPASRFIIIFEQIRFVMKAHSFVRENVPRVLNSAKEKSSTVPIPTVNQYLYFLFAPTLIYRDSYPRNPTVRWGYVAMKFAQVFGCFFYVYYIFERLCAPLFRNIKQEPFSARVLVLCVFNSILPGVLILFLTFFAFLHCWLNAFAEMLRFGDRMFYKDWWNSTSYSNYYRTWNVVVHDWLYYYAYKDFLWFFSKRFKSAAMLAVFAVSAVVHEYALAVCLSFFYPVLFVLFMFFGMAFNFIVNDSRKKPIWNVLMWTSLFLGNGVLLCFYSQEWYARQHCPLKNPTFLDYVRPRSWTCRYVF
Description: Inhibition of human ACAT1

[8] = Distribution coefficient, log D of compound; type: physicochemical; details: octanol/water
[9] = Solubility of the compound at pH 7; type: physicochemical; details: buffer
Homo sapiens = organism: Homo sapiens; test: Ratio of IC50 for human ACAT1 to IC50 for human DGAT1
[10] = Mutagenicity in Salmonella typhimurium […] by Ames test; type: toxicity; details: salmonella enterica subsp. enterica serovar typhimurium
[11] = Mutagenicity in Salmonella typhimurium TA98 by Ames test; type: toxicity; details: salmonella enterica subsp. enterica serovar typhimurium
[12] = Mutagenicity in Salmonella typhimurium TA100 by Ames test; type: toxicity; details: salmonella enterica subsp. enterica serovar typhimurium
Mus musculus [13] = test: Reduction in lipid excursion in mouse at 10 mg/kg, po QD measured at 18 hrs post dose by lipid tolerance test relative to control; type: functional; set-up: scale not given: the % may be the effect or the level left
[14] = Oral bioavailability in Sprague-Dawley rat at 2 mg/kg; type: ADME, organism-based; details: in vivo
[15] = Clearance in Sprague-Dawley rat at 1 mg/kg, iv and 2 mg/kg, po; type: ADME, organism-based; details: in vivo
[16] = Volume of distribution at steady state in Sprague-Dawley rat at 1 mg/kg, iv or 2 mg/kg, po; type: ADME, organism-based; details: in vivo, read-out: Vdss
[17] = Half life in Sprague-Dawley rat at 1 mg/kg, iv or 2 mg/kg, po; type: ADME, organism-based; details: in vivo
[18] = Cmax in Sprague-Dawley rat at 1 mg/kg, iv or 2 mg/kg, po; type: ADME, organism-based; details: in vivo
[19] = Tmax in Sprague-Dawley rat at 1 mg/kg, iv or 2 mg/kg, po; type: ADME, organism-based; details: in vivo
[20] = Dose normalized AUC in Sprague-Dawley rat at 1 mg/kg, iv or 2 mg/kg, po; type: ADME, organism-based; details: in vivo
[21] = Oral bioavailability in Beagle dog at 2 mg/kg; type: ADME, organism-based, Canis lupus familiaris; details: in vivo
[22] = Clearance in Beagle dog at 1 mg/kg, iv or 2 mg/kg, po; type: ADME, organism-based, Canis lupus familiaris; details: in vivo
[23] = Volume of distribution at steady state in Beagle dog at 1 mg/kg, iv or 2 mg/kg, po; type: ADME, organism-based, Canis lupus familiaris; details: in vivo, read-out: Vdss
[24] = Half life in Beagle dog at 1 mg/kg, iv or 2 mg/kg, po; type: ADME, organism-based, Canis lupus familiaris; details: in vivo
[25] = Cmax in Beagle dog at 1 mg/kg, iv or 2 mg/kg, po; type: ADME, organism-based, Canis lupus familiaris; details: in vivo
[26] = Tmax in Beagle dog at 1 mg/kg, iv or 2 mg/kg, po; type: ADME, organism-based, Canis lupus familiaris; details: in vivo
[27] = Dose normalized AUC in Beagle dog at 1 mg/kg, iv or 2 mg/kg, po; type: ADME, organism-based, Canis lupus familiaris; details: in vivo
[28] = Mutagenicity in Salmonella typhimurium […] up to 30 to 5000 ug/plate by Ames test; type: toxicity; details: salmonella enterica subsp. enterica serovar typhimurium
[29] = Mutagenicity in Salmonella typhimurium TA98 up to 30 to 5000 ug/plate by Ames test; type: toxicity; details: salmonella enterica subsp. enterica serovar typhimurium
[30] = Mutagenicity in Salmonella typhimurium TA100 up to 30 to 5000 ug/plate by Ames test; type: toxicity; details: salmonella enterica subsp. enterica serovar typhimurium
Canis familiaris = test: Reduction in lipid excursion in dog at 1 mg/kg, po measured by lipid tolerance test relative to control; type: functional, Canis lupus familiaris; set-up: scale not given: the % may be the effect or the level left

Chain of Voltage-gated inwardly rectifying potassium channel KCNH2 (Q12809 whole entry): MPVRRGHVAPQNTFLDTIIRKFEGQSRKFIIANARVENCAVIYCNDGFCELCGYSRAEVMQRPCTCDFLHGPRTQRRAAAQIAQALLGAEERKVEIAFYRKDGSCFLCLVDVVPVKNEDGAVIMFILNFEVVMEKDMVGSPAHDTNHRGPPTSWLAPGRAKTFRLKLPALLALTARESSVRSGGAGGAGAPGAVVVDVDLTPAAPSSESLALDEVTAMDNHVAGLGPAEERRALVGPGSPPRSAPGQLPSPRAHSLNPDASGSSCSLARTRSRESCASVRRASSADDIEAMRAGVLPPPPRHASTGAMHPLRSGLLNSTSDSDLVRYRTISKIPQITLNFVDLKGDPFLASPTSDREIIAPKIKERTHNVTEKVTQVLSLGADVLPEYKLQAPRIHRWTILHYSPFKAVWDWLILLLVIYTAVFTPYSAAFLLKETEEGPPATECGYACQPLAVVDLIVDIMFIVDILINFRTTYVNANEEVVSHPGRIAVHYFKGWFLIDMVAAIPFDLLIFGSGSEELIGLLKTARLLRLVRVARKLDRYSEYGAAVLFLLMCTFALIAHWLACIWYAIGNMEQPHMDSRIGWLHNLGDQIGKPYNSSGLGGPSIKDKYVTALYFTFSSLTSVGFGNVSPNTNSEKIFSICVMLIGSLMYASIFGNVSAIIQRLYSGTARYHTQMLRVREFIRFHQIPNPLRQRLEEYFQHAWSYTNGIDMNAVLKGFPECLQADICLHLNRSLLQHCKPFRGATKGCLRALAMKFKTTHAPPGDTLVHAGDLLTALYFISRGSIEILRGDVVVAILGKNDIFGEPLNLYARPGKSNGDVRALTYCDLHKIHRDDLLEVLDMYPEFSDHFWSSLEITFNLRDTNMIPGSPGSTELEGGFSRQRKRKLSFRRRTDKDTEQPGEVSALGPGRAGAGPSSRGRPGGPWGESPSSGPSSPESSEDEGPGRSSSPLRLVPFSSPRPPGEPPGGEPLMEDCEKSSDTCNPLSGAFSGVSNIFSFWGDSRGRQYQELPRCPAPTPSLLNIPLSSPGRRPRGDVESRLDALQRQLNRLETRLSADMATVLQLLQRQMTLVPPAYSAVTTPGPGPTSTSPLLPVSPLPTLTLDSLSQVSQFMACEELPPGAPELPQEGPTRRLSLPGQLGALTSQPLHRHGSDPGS
T1 sequence (P29274 whole entry): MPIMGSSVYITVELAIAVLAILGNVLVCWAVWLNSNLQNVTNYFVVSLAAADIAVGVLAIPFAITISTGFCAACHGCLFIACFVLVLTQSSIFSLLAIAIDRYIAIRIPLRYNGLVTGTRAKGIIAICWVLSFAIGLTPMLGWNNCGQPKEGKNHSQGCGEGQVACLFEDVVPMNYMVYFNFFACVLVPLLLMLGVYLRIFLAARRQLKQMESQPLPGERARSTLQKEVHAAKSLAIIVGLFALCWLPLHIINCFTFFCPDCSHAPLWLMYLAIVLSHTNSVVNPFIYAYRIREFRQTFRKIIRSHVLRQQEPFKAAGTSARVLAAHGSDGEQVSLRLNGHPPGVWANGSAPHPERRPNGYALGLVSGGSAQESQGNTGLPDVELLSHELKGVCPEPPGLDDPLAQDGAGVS

SMILES | IC50 (Adenosine receptor A2a [2]) [nM] | IC50 [5] [nM] | IC50 [6] [nM] | IC50 [7] [nM] | Ki [1] [nM] | Activity (Mus musculus [3]) [%] | also measured
O=C(O)C[C@H]1CC[C@H](OC2CCN(c3ccc(-c4nc5ccccc5[nH]4)cn3)CC2)CC1 | > 10000 | 15.2 | 42.1 | > 10000 | 25700 | 85 | Activity [10]: Toxic; Activity [11]: Toxic; Activity [12]: Toxic
CC1(C(=O)O)CCN(c2ccc(-c3ccc(-c4nc5cc(Cl)ccc5[nH]4)cn3)cn2)CC1 |  | 2.5 | 20 | > 10000 | 4800 |  | logD [8]: 1.45; Ratio IC50 (Homo sapiens): > 4000; Activity (Mus musculus [13]): 96%
O=C(O)C[C@H]1CC[C@H](OC2CCN(c3ccc(-c4nc5cc(F)c(F)cc5[nH]4)cn3)CC2)CC1 | 3480 | 6.5 | 46 | > 10000 | 40700 | 84 | bioavailability [14]: 17%; clearance [15]: 17 mL/min/kg; Vd [16]: 1.08 L/kg; half-life [17]: 1 h; Cmax [18]: 230 nM; Tmax [19]: 1 h; AUC/dose [20]: 0.3 µM·h/mg/kg; bioavailability [21]: 40%; clearance [22]: 3.4 mL/min/kg; Vd [23]: 0.81 L/kg; half-life [24]: 3.2 h; Cmax [25]: 2400 nM; Tmax [26]: 0.5 h; AUC/dose [27]: 4.1 µM·h/mg/kg; Activity [28]: Non-Toxic; Activity [29]: Non-Toxic; Activity [30]: Non-Toxic; Activity (Canis familiaris): 100%
O=C(O)C[C@H]1CC[C@H](OC2CCN(c3ccc(-c4nc5c(F)cccc5[nH]4)cn3)CC2)CC1 | 910 | 8 | 21.4 | > 10000 | 10700 | 92 | 
Cc1ccc2[nH]c(-c3ccc(-c4ccc(O[C@H]5CC[C@@H](CC(=O)O)CC5)nc4)nc3)nc2n1 | 490 | 30.8 |  | > 10000 | > 60000 |  | 
O=C(O)C[C@H]1CC[C@@H](Oc2ccc(-c3ccc(-c4nc5ccccc5[nH]4)cn3)cn2)CC1 | 450 | 5.2 | 5.2 | > 2000 | 26900 | 92 | Activity (Adenosine receptor A2a [4]): Active

Now from value to compound, other results behind:

IC50 (Adenosine receptor A2a [2]) [nM] | IC50 [5] [nM] | IC50 [6] [nM] | IC50 [7] [nM] | SMILES | Ki [1] [nM] | Activity (Mus musculus [3]) [%] | also measured
1200 | 11.6 | 9.8 | > 2000 | COc1ccc2[nH]c(-c3ccc(-c4ccc(O[C@H]5CC[C@@H](CC(=O)O)CC5)nc4)nc3)nc2n1 | 37700 | 96 | Activity (Adenosine receptor A2a [4]): Active
 | 1.3 | 4.4 | 1940 | O=C(O)c1ccc(Oc2ccc(-c3ccc(-c4nc5cc(Cl)ccc5[nH]4)cn3)cn2)cc1 | 1360 |  | logD [8]: 1.49; solubility [9]: < 1 µM
1800 | 2 | 4.6 | > 10000 | O=C(O)C[C@H]1CC[C@H](OC2CCN(c3ccc(-c4nc5cc(C(F)(F)F)ccc5[nH]4)cn3)CC2)CC1 | 4900 | 57 | 
 | 6.4 |  | 3780 | Oc1ccc(-c2ccc(-c3nc4cc(C(F)(F)F)ccc4[nH]3)cc2)cn1 | 2250 |  | Ratio IC50 (Homo sapiens): > 500
520 | 4.1 | 11 | > 10000 | O=C(O)C[C@H]1CC[C@H](OC2CCN(c3ccc(-c4nc5c(F)cc(F)cc5[nH]4)cn3)CC2)CC1 | 4100 | 65 | 
420 | 2.4 | 3.2 | > 2000 | O=C(O)C[C@H]1CC[C@@H](Oc2ccc(-c3ccc(-c4nc5cc(F)ccc5[nH]4)cn3)cn2)CC1 | 8200 | 109 | 
430 | 3.6 | 17.8 | > 10000 | N#Cc1ccc2[nH]c(-c3ccc(-c4ccc(O[C@H]5CC[C@@H](CC(=O)O)CC5)nc4)nc3)nc2c1 | 2700 | 63 | 
680 | 3.1 | 22 | > 10000 | O=C(O)C[C@H]1CC[C@H](OC2CCN(c3ccc(-c4nc5cc(Cl)ccc5[nH]4)cn3)CC2)CC1 | 4500 |  | 
970 | 7 | 9.5 | > 2000 | O=C(O)C[C@H]1CC[C@@H](Oc2ccc(-c3ccc(-c4nc5cc(C(F)(F)F)cnc5[nH]4)cn3)cn2)CC1 | 23400 | 92 | Activity (Adenosine receptor A2a [4]): Active
